This note sets out measurements from patent US9856252B2, “2-(hetero)aryl-benzimidazole and imidazopyridine derivatives as inhibitors of asparagime emethyl transferase” (Cancer Therapeutics CRC Pty Ltd, priority 2013, dated 2018).

Molecules are shown by their SMILES.

Chain of Full-length PRMT5 enzyme (NCBI Reference sequence NP_006100.2) co-expressed with His6-MEP50 (O14744 whole entry): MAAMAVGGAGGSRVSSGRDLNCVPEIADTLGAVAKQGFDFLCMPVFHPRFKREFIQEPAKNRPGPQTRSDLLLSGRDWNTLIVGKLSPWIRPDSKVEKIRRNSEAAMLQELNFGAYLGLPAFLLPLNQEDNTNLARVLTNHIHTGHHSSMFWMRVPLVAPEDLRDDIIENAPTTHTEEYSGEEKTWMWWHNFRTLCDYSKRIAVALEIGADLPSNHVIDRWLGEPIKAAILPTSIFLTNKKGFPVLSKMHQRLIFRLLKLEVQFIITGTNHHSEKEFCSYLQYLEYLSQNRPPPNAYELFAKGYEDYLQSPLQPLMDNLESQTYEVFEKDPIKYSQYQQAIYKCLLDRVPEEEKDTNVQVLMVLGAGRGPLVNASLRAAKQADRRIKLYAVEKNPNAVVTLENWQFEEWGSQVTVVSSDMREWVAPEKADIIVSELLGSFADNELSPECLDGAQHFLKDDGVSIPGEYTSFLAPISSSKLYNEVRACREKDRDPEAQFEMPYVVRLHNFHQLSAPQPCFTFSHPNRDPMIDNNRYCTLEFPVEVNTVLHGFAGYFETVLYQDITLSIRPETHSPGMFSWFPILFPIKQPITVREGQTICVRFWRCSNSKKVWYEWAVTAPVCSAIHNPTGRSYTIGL
Chain of Full-length PRMT5 enzyme (NCBI Reference sequence NP_006100.2) co-expressed with His6-MEP50 (Q9BQA1 whole entry partner): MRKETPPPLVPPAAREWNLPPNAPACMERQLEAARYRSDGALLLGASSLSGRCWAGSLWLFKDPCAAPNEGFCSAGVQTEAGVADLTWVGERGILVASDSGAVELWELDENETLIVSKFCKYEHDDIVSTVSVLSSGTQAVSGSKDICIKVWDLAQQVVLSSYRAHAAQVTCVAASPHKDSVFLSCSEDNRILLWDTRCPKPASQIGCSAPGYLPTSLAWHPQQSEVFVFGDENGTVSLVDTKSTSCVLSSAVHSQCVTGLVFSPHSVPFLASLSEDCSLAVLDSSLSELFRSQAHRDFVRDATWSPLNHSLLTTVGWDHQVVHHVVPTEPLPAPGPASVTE

The assay concerns the target Full-length PRMT5 enzyme (NCBI Reference sequence NP_006100.2) co-expressed with His6-MEP50 (Homo sapiens (Human), UniProt O14744). Nature of the assay: PRMT5 Biochemical Assay. The following applies: histone H4 derived peptide substrate 200 nM, 1 μM S-Adenosyl methionine, 4 hours at 37° C., Transcreener EPIGEN fluorescence polarisation. The protocol:
Compounds of the invention may be tested for in vitro activity in the following assay: A histone H4 derived peptide is used as substrate (amino acid sequence: […]N H2). Full-length PRMT5 enzyme (NCBI Reference sequence NP_006100.2) was co-expressed with His6-MEP50 in insect cells and purified via Nickel immobilized metal affinity and gel filtration chromatography (“the enzyme”).
The 6 μL assay reactions are run in Greiner brand black 384-well low volume plates. All reactions contained assay buffer (phosphate buffered saline, 0.01% (v/v) Tween-20, 0.01% (w/v) albumin from chicken egg white, 1 mM dithiothreitol, 200 nM peptide substrate, 1 μM S-Adenosyl methionine, and 15 ng/reaction enzyme, with the enzyme being omitted from negative control reactions. Compounds were added in a volume of 100 nL from dilution series prepared in DMSO, positive and negative control reactions receiving the same volume DMSO without compound. The plates were sealed with adhesive seals and incubated for 4 hours at 37° C. Reaction progress was measured using the Transcreener™ EPIGEN methyltransferase assay (BellBrook Labs, Madison, Wis.) as recommended by the manufacturer. To each reaction 2 μL detection mix were added, containing coupling enzymes, fluorescence polarisation tracer, and AMP antibody. Plates were incubated for 90 minutes before being read on a PerkinElmer EnVision™ plate reader in fluorescence polarisation mode.
`c1ccc(COc2ccc(-c3nc4ccc(NCC5CCCCN5)nc4[nH]3)cc2)cc1` (stereo not drawn) [Example 51] yielded a half-inhibitory concentration (IC50) of 547 nM. Turning to `O=S1(=O)CCN(c2ccc3nc(-c4ccc(OCc5ccccc5)cc4)[nH]c3n2)CC1` [Example 25, 4-(2-(4-(benzyloxy)phenyl)-3H-imidazo[4,5-b]pyridin-5-yl)thiomorpholine 1,1-dioxide], half-maximal inhibition (IC50) required 619 nM.

The molecule `c1ccc(COc2ccc(-c3nc4ccc(NCC5CCNCC5)nc4[nH]3)cc2)cc1` [Example 52] displayed an IC50 of 935 nM. `O=S(=O)(C1CC1)N1CCN(c2ccc3nc(-c4ccc(OCc5ccccc5)cc4)[nH]c3n2)CC1` [Example 92, 2-(4-(benzyloxy)phenyl)-5-(4-(cyclopropylsulfonyl)piperazin-1-yl)-3H-imidazo[4,5-b]pyridine] yielded an IC50 of 279 nM. The result for `CS(=O)(=O)N1CCC(c2cnc3[nH]c(-c4ccc(OCc5ccccc5)cc4)nc3c2)CC1` [Example 83, 2-(4-(benzyloxy)phenyl)-6-(1-(methylsulfonyl)piperidin-4-yl)-3H-imidazo[4,5-b]pyridine] reads 1110 nM; that for `Fc1cccc(COc2ccc(-c3nc4ccc(N5CCNCC5)nc4[nH]3)cc2)c1` [Example 58], 333 nM.

Turning to `CC(=O)N1CC=C(c2ccc3nc(-c4ccc(OCc5ccccc5)cc4)[nH]c3n2)CC1` [Example 98, 1-(4-(2-(4-(benzyloxy)phenyl)-3H-imidazo[4,5-b]pyridin-5-yl)-3,6-dihydropyridin-1 (2H)-yl)ethan-1-one], it took 166 nM to reach half-maximal inhibition (IC50). The value for `CN(C)c1ccc2nc(-c3ccc(OCc4ccccc4)cc3)[nH]c2n1` [Example 48, 2-(4-(benzyloxy)phenyl)-N,N-dimethyl-3H-imidazo[4,5-b]pyridin-5-amine] was 450 nM; that for `CS(=O)(=O)N1CCN(c2ccc3nc(-c4ccc(OCc5ccccc5)cc4)[nH]c3n2)CC1` [Example 91, 2-(4-(benzyloxy)phenyl)-5-(4-(methylsulfonyl)piperazin-1-yl)-3H-imidazo[4,5-b]pyridine] was 820 nM.

Regarding `CN(C)C(=O)Cc1ccnc2[nH]c(-c3ccc(OCc4ccccc4)cc3)nc12` [Example 94, 2-(2-(4-(benzyloxy)phenyl)-3H-imidazo[4,5-b]pyridin-7-yl)-N,N-dimethylacetamide], 1020 nM corresponded to half-maximal inhibition (IC50). In the case of `c1ccc(OCc2ccc(-c3nc4cccnc4[nH]3)cc2)cc1` [Example 1, 2-(4-(phenoxymethyl)phenyl)-3H-imidazo[4,5-b]pyridine], the half-inhibitory concentration (IC50) amounted to 1490 nM. The result for `CC(C)(C)OC(=O)NCC1CCCN(c2ccc3nc(-c4ccc(OCc5ccccc5)cc4)[nH]c3n2)C1` (stereo not drawn) [Example 28, tert-butyl ((1-(2-(4-(benzyloxy)phenyl)-3H-imidazo[4,5-b]pyridin-5-yl)piperidin-3-yl)methyl)carbamate] reads 1680 nM. Consider `c1ccc(OCc2ccc(-c3nc4ccc(C5CCNCC5)nc4[nH]3)cc2)cc1` [Example 85, 2-(4-(phenoxymethyl)phenyl)-5-(piperidin-4-yl)-3H-imidazo[4,5-b]pyridine], for which the midpoint of inhibition, the IC50, lay at 151 nM.

Molecule `Cn1cc(-c2cc(-c3nc4cc(C5CCNCC5)cnc4[nH]3)ccc2OCc2ccccc2)cn1` [Example 63, 2-(4-(benzyloxy)-3-(1-methyl-1H-pyrazol-4-yl)phenyl)-6-(piperidin-4-yl)-3H-imidazo[4,5-b]pyridine] came in with a 50% inhibitory concentration (IC50) of 215 nM. Regarding `c1ccc(CSc2ccc(-c3nc4ccc(N5CCNCC5)nc4[nH]3)cc2)cc1` [Example 96, 2-(4-(benzylthio)phenyl)-5-(piperazin-1-yl)-3H-imidazo[4,5-b]pyridine], the half-maximal inhibitory concentration (IC50) stood at 585 nM. The value for `CC(=O)N1CCC(c2cnc3[nH]c(-c4ccc(COc5ccccc5)cc4)nc3c2)CC1` [Example 10, 1-(4-(2-(4-(phenoxymethyl)phenyl)-3H-imidazo[4,5-b]pyridin-6-yl)piperidin-1-yl)ethanone] was 375 nM; that for `CC(C)(C)OC(=O)N1CCC(Nc2ccc3nc(-c4ccc(OCc5ccccc5)cc4)[nH]c3n2)CC1` [Example 32, tert-butyl 4-((2-(4-(benzyloxy)phenyl)-3H-imidazo[4,5-b]pyridin-5-yl)amino)piperidine-1-carboxylate] was 827 nM; that for `CN(c1ccc2nc(-c3ccc(OCc4ccccc4)cc3)[nH]c2n1)C1CCCN(C(=O)OC(C)(C)C)C1` (stereo not drawn) [Example 30, tert-butyl 3-((2-(4-(benzyloxy)phenyl)-3H-imidazo[4,5-b]pyridin-5-yl)(methyl)amino)piperidine-1-carboxylate] was 2660 nM. The result for `CN1CCC(c2ccc3nc(-c4ccc(COc5ccccc5)cc4)[nH]c3n2)CC1` [Example 86, 5-(1-methylpiperidin-4-yl)-2-(4-(phenoxymethyl)phenyl)-3H-imidazo[4,5-b]pyridine] reads 151 nM; that for `O=C1CNCCN1c1ccc2nc(-c3ccc(OCc4ccccc4)cc3)[nH]c2n1` [Example 21, 1-(2-(4-(benzyloxy)phenyl)-3H-imidazo[4,5-b]pyridin-5-yl)piperazin-2-one], 774 nM.

For the molecule `CCS(=O)(=O)N1CCN(c2ccc3nc(-c4ccc(OCc5ccccc5)c(OC)c4)[nH]c3n2)CC1` [Example 75, 2-(4-(benzyloxy)-3-methoxyphenyl)-5-(4-(ethylsulfonyl)piperazin-1-yl)-3H-imidazo[4,5-b]pyridine], the IC50 was found to be 306 nM.

`NCC1CCCN(c2ccc3nc(-c4ccc(OCc5ccccc5)cc4)[nH]c3n2)C1` (stereo not drawn) [Example 50]: the concentration for half-maximal inhibition (IC50) came out at 317 nM.

In the case of `c1ccc(COc2ccc(-c3nc4ccc(N5CCNCC5)nc4[nH]3)cc2)cc1` [Example 47, 2-(4-(benzyloxy)phenyl)-5-(piperazin-1-yl)-3H-imidazo[4,5-b]pyridine], the IC50 was found to be 197 nM. The value for `CC(=O)NCCNc1ccc2nc(-c3ccc(OCc4ccccc4)cc3)[nH]c2n1` [Example 22, N-(2-((2-(4-(benzyloxy)phenyl)-3H-imidazo[4,5-b]pyridin-5-yl)amino)ethyl)acetamide] was 487 nM; that for `CCS(=O)(=O)N1CCN(c2ccc3nc(-c4ccc(OCc5ccccc5)c(C)c4)[nH]c3n2)CC1` [Example 74, 2-(4-(benzyloxy)-3-methylphenyl)-5-(4-(ethylsulfonyl)piperazin-1-yl)-3H-imidazo[4,5-b]pyridine] was 1360 nM; that for `Fc1cc(-c2nc3cc(C4CCNCC4)cnc3[nH]2)ccc1OCc1ccccc1` [Example 65, 2-(4-(benzyloxy)-3-fluorophenyl)-6-(piperidin-4-yl)-3H-imidazo[4,5-b]pyridine] was 276 nM. The result for `O=C(O)Cc1ccnc2[nH]c(-c3ccc(OCc4ccccc4)cc3)nc12` [Example 77, 2-(2-(4-(benzyloxy)phenyl)-3H-imidazo[4,5-b]pyridin-7-yl)acetic acid] reads 901 nM; that for `CN1CCC(c2cnc3[nH]c(-c4ccc(COc5ccccc5)cc4)nc3c2)CC1` [Example 11, 6-(1-methylpiperidin-4-yl)-2-(4-(phenoxymethyl)phenyl)-3H-imidazo[4,5-b]pyridine], 482 nM. The value for `CCS(=O)(=O)N1CCN(c2ccc3nc(-c4ccc(OCc5ccccc5)cc4)[nH]c3n2)CC1` [Example 27, 2-(4-(benzyloxy)phenyl)-5-(4-(ethylsulfonyl)piperazin-1-yl)-3H-imidazo[4,5-b]pyridine] was 148 nM; that for `NCC1CCN(c2ccc3nc(-c4ccc(OCc5ccccc5)cc4)[nH]c3n2)CC1` [Example 55] was 426 nM.

One may read the IC50 as the point on the concentration scale where inhibition reaches its midpoint. High values mean weaker potency in that assay, low ones greater potency in that assay.
